From article PMC12040169 (PLOS Biology, 2025)

Test: in vitro
Conditions: human, hela cells, % viability

Row | Compound | viability at 28.5 h, 10 µM [%] | viability at 28.5 h, 10 µM (bulk resorufin, single well) [%]
1 | Nc1nc2n(n1)C(c1ccccc1)C1=C(CCCC1)N2 (stereo not shown) [CBK287949] | 107 | –
2 | COc1ccc([C@@]23CC[C@@H](NC(=O)Nc4ccc(F)c(F)c4)C[C@@H]2N(C)CC3)cc1O [CBK051630] | 88.3 | –
3 | CC(=O)N1CCc2sccc2C1c1ccc(NCc2ccc(F)cc2F)cc1 (stereo not shown) [CBK286455] | 93.8 | –
4 | Cn1ccc(C(=O)NC2CCN(c3ncccn3)CC2)cc1=O [CBK304280] | 85.2 | –
5 | CCCC1COC(c2ccc(C#N)cc2)OC1 (stereo not shown) [CBK033941] | 94.5 | –
6 | COc1ccc(Nc2nnc(-c3ccc(C(=O)NCCO)cc3)c3ccccc23)cc1 [CBK263735] | 90.5 | –
7 | NC(=O)c1ccc(NC(=O)c2sc3ccccc3c2Cl)cc1 [CBK262643] | 90.8 | –
8 | CCCS(=O)(=O)n1ccn(-c2cccc(C(F)(F)F)c2)c1=O [CBK106585] | 88.3 | –
9 | O=S(=O)(Nc1nnn[nH]1)c1ccc(-c2ccccn2)s1 [CBK062589] | 106 | –
10 | Cc1ccc(-n2cccn2)cc1S(=O)(=O)N1CCNCC1C (stereo not shown) [CBK307344] | 85.1 | –
11 | O=C(Cn1ccc([N+](=O)[O-])n1)NCc1ccco1 [CBK268999] | 89.6 | –
12 | CC1(C)CC2CC(C)(CN2Cc2c(O)ccc3cc(-c4nc(-c5ccc(Br)cc5)cs4)c(=O)oc23)C1 (stereo not shown) [CBK263831] | 103 | –
13 | CN1CCN(c2cc(N)nc(N)n2)CC1 [CBK266102] | 107 | –
14 | CC(C)(C)OC(=O)NCc1ccc(-c2cc(Nc3cccc(Cl)c3)ncn2)cc1 [CBK037842] | 92.8 | –
15 | CC(NC(=O)COc1ccc(Cl)cc1)C(=O)O (stereo not shown) [CBK262112] | 90.7 | –
16 | N#Cc1cnn2c(C(F)(F)F)cc(C(F)(F)F)nc12 [CBK014064] | 93.5 | –
17 | COc1cc(C(=O)N2CCC3(CC2)CC(=O)c2cc(C)ccc2O3)cc(OC)c1C [CBK167805] | 99.6 | –
18 | O=C(CC1CCCC1)NCCn1nc(-c2cccs2)ccc1=O [CBK283841] | 91.8 | –
19 | CCCC(=O)N1CCN(Cc2ccc3c(c2)OCO3)CC1 [CBK074367] | 92.7 | –
20 | O=C(O)c1cc(S(=O)(=O)Nc2nnc(C(F)(F)F)s2)c(F)cc1Cl [CBK062022] | 95 | –
21 | O=C(O)C(CCCN1CCCC1)(c1ccccc1)c1ccccc1 [CBK022695G] | 81.7 | –
22 | C=CCC1c2cccc(C(=O)O)c2C(=O)N1c1ccc(F)cc1 (stereo not shown) [CBK113158] | 94.1 | –

Row | Compound | viability at 28.5 h, 10 µM [%] | viability at 28.5 h, 10 µM (bulk resorufin, single well) [%]
23 | Cc1ccc2c(c1)oc(=O)n2CCNC(=O)Cc1c[nH]c2ccccc12 [CBK284473] | 101 | –
24 | CNC1CCCCCC1(O)c1ccccc1 (stereo not shown) [CBK005073] | 99.2 | –
25 | COc1ccc(OC(=O)c2csc(Cc3c(Cl)cccc3Cl)n2)cc1 [CBK083573] | 95.7 | –
26 | COC(=O)c1cc(C)nc2sc(C)c(N)c12 [CBK115343] | 85.8 | –
27 | Cn1nc(C2CCCN(C(=O)c3cccc(F)c3)C2)c2cccnc21 (stereo not shown) [CBK282155] | 85.8 | –
28 | Cc1cc(Cl)ccc1OC(C)C(=O)NCc1ccccn1 (stereo not shown) [CBK265441] | 98.8 | –
29 | CCN(C#N)c1nc(NC)nc(OC)n1 [CBK265697] | 98.1 | –
30 | CCCC(=O)NCC(C)c1nsc(NS(=O)(=O)c2cccc(Cl)c2C)n1 (stereo not shown) [CBK200053] | 96 | –
31 | CC(C)OC(=O)[C@@H]1CCN(C(=O)CCC2NC(=O)NC2=O)[C@@H]1c1ccc(F)cc1 (stereo partly shown) [CBK285520] | 103 | –
32 | COc1ccccc1CC(=O)N1CCCC(c2cc3ncccc3[nH]2)C1 (stereo not shown) [CBK283417] | 95.4 | –
33 | COc1ccc2oc(C(=O)N(C)CC(C)OC)c(C)c2c1 (stereo not shown) [CBK282037] | 94.4 | –
34 | CN1CCN(c2nc(-c3cc4ccccc4s3)cn3ccnc23)CC1 [CBK066388] | 106 | –
35 | Cc1nc2ccccn2c1CN1CCC(Oc2ccc(F)cc2)CC1 [CBK281803] | 90.1 | –
36 | Cc1nnc([C@H]2CCN(Cc3ccc4c(c3)OCO4)C2)o1 [CBK289392] | 111 | –
37 | Nc1ncc(-c2ccc(F)c(Cl)c2)nc1NCCCO [CBK063555] | 101 | –
38 | Cc1nc2c(c(=O)[nH]1)CC[C@@H]1CN(C(=O)CCc3ccccc3)C[C@H]21 [CBK284414] | 95.9 | –
39 | O=C(c1cc(F)cc(F)c1)N1CCC(n2cnc3cccnc32)CC1 [CBK283636] | 88.6 | –
40 | CN(C(=O)CN1CCOC(Cn2cccn2)C1)C1(C#N)CCCCC1 (stereo not shown) [CBK305335] | 97.3 | –
41 | CCn1cc(C(=O)N2CCOC(C(=O)O)C2)c(=O)c2ccc(C)nc21 (stereo not shown) [CBK307165] | 83.5 | –
42 | Cc1sc2nc(C)n(C3CCNCC3)c(=O)c2c1C [CBK282421] | 113 | –
43 | CN(Cc1ccc2c(c1)OCO2)C(=O)c1cnn2c(-c3ccccc3)ccnc12 [CBK298276] | 95 | –
44 | O=C(NCC(c1ccco1)N1CCCC1)C1CCCCC1 (stereo not shown) [CBK304560] | 88.7 | –

Row | Compound | viability at 28.5 h, 10 µM [%] | viability at 28.5 h, 10 µM (bulk resorufin, single well) [%]
45 | Cc1nc2sc3c(c2c2nc(CCC(=O)O)nn12)CC(C)(C)OC3 [CBK269168] | 81.4 | –
46 | COc1cc(Nc2cccc(-c3ccc4ccccc4c3)n2)cc(OC)c1OC [CBK037612] | 97.9 | –
47 | O=C1N[C@H]2CCCN(C(=O)Cn3cccnc3=O)[C@H]2CCCCCOc2ccccc21 [CBK292096] | 109 | –
48 | COc1ccc(C(C)C)cc1-c1cncc(N[C@@H](CO)C(C)C)n1 [CBK065356] | 102 | –
49 | OC(CSc1ccc(F)cc1)CN1CCN(c2ccc(C(F)(F)F)cn2)CC1 (stereo not shown) [CBK074688] | 91.2 | –
50 | CN(C(=O)c1ccc(Cl)c(Cl)c1)[C@H]1CCC[C@H]1N1CCCC1 [CBK003411C] | – | 90
51 | CCC(Sc1ccc2nnc(-c3cccnc3)n2n1)C(=O)O (stereo not shown) [CBK287623] | 110 | –
52 | Clc1ccc(-c2cncc(NCCc3ccncc3)n2)cc1 [CBK065787] | 99.5 | –
53 | O=C(Nc1ccc(F)c(C(F)(F)F)c1)c1cncc(-c2ccc(C(=O)N3CCOCC3)cc2)c1 [CBK160216] | 88.2 | –
54 | COc1ccc2[nH]c3c(c2c1)CCNC31CCCN(Cc2ccc(OC(F)(F)F)cc2)C1 (stereo not shown) [CBK039387] | 113 | –
55 | CC(=O)N1Cc2cc(C)ccc2OC2(CCCN(CC3CC3)C2)C1 (stereo not shown) [CBK285104] | 88.7 | –
56 | COc1cccc(CN2CCN(S(=O)(=O)c3ccccc3[N+](=O)[O-])CC2)c1OC [CBK264162] | 87.4 | –
57 | CC(C)C(=O)NC(C)c1nc(-c2ccncc2)n[nH]1 (stereo not shown) [CBK104021] | 113 | –
58 | CCCCCn1c(=O)c(C(=O)Nc2cccc(O)c2)c(O)c2ccccc21 [CBK291189] | 111 | –
59 | Cc1cnn(C2(C(=O)O)CCN(C(=O)c3cccc(C#N)c3)CC2)c1 [CBK307058] | 102 | –
60 | COc1cccc2c1cc(C(=O)NCCn1ccnc1C)n2C [CBK283267] | 101 | –
61 | COC(=O)[C@H]1CN(C(=O)c2cn(C)nc2C)C[C@@H]1c1ccccc1F [CBK283511] | 88.2 | –
62 | CN(C)S(=O)(=O)c1ccc(Cl)c(C(=O)Nc2cccc(C(=O)O)c2)c1 [CBK265727] | 90.9 | –
63 | CC(C)(C)OC(=O)N1CCC2(CC1)OCc1cc(-c3cccc(OCC(=O)N4CCOCC4)c3)ccc1O2 [CBK105254] | – | 96.8
64 | CSCC(O)Cn1nc(O)cc(C)c1=O (stereo not shown) [CBK006293] | 105 | –
